Like-named read-outs stand apart in the source and are kept apart here.
Experiments:
Format in all cases: cell-based
E. coli [1] = experiment: MIC in RPMI1640 media (Table 2)
Method: (§1) […] […] Tests were performed in triplicate. MIC of iron chelators were determined for noscomial ESKAPE pathogens.
(§2) This media is closer to the iron levels in the human body. MICs are in ug/mL.

P. aeruginosa [2] = experiment: MIC in RPMI1640 media (Table 2); details: Pseudomonas aeruginosa
Method: as §1, §2

Acinetobacter baumannii [3] = experiment: MIC in RPMI1640 media (Table 2)
Method: as §1, §2

K. pneumonia [4] = experiment: MIC in RPMI1640 media (Table 2); details: Klebsiella pneumoniae
Method: as §1, §2

[5] = tested on: AB5075 a MDR-clinical isolate of A. baumannii; experiment: Time-kill assay in CAMHB; details: 0.5×MIC, 1×MIC and 2×MIC; 0, 2 and 4 hours
Method: Reductions in colony forming units (CFU)/mL were determined over time (time-kill assay) after exposure to VK28 and deferiprone (DFP), the two iron chelators that performed best in MIC assays when compared to controls. To better represent the iron content found in the human body, MIC and time-kill assays were also determined in minimal media and tissue culture media. Time-Kill assays were performed as previously described in G. P. Neupane et al., “In vitro time-kill activities of ciprofloxacin alone and in combination with the iron chelator deferasirox against Vibrio vulnificus,” European Journal of Clinical Microbiology and Infectious Diseases, 407-410 (2010); and R. L. White, et al., “Comparison of Three Different In Vitro Methods of Detecting synergy: Time-Kill, Checkerboard, and E test,” Journal of Antimicrobial Agents and Chemotherapy, 1914-1918 (1996). Initial inocula, for example 1×10^6 CFU/mL or 1×10^7 CFU/mL were challenged with iron chelator with and/or without an antibiotic. Cells were allowed to grow in CAMHB at 37° C. for 24 hours. Time-kill results were analyzed by determining the change in log 10 numbers of CFU/ml at 0, 6, and 24 h, compared to counts at 0 h. Antimicrobials were considered bactericidal at the lowest concentration that reduced the size of the original inoculum by >3 log 10 CFU/ml (99.9%) over each of the time periods and were considered bacteriostatic if the inoculum's size was reduced by 0 to <3 log 10 CFU/ml.
(§3) In this example, time-kill assays were performed as described in Example 9 using Apo6619 as the iron chelator against AB5075 (MRSN959), the MDR-clinical isolate of A. baumannii. The initial inocula was 1×10^6 CFU/mL, and were challenged with 0.5×MIC, 1×MIC and 2×MIC of Apo6619. Time-kill results were analyzed by determining the change in log 10 numbers of CFU/mL at 0, 2 and 4 hours.
as §3, with “VK28 or DFP” for “Apo6619”, “AB5075,” for “AB5075 (MRSN959),”, “either VK28 or DFP.” for “Apo6619.”, “at” for “at 0,”, “6” for “4”

E. coli [6] = experiment: MIC, CLSI microdilution (Tables 1 and 6); details: Escherichia coli, Table 1, read-out: MIC of Iron Chelators
Method: (§4) The minimal inhibitory concentration (MIC) of non-toxic iron chelators was determined against standard strains of MDR bacteria and clinical isolates according to the guidelines of the Clinical and Laboratory Standards Institute (CLSI).
(§5) Individual MICs were determined following the microdilution method recommended by CLSI in cationic-adjusted Mueller-Hinton Broth (CAMHB), or M9 media. […] Tests were performed in triplicate. MIC of iron chelators were determined for noscomial ESKAPE pathogens.
(§6) MIC were determined in CAMHB media as described above in Example 8.

P. aeruginosa [7] = experiment: MIC, CLSI microdilution (Tables 1 and 6); details: Pseudomonas aeruginosa, Table 1, read-out: MIC of Iron Chelators
Method: as §4, §5, §6

S. aureus = experiment: MIC, CLSI microdilution (Tables 1 and 6); details: Staphylococcus aureus, Table 1, read-out: MIC of Iron Chelators
Method: as §4, §5, §6

Acinetobacter baumannii [8] = experiment: MIC, CLSI microdilution (Tables 1 and 6)
Method: as §4, §5, §6

K. pneumonia [9] = experiment: MIC, CLSI microdilution (Tables 1 and 6); details: Klebsiella pneumoniae, Table 1, read-out: MIC of Iron Chelators
Method: as §4, §5, §6

[10] = tested on: clinical isolates of A. baumannii; experiment: MIC for clinical isolates in CAMHB media (Table 3); details: Acinetobacter baumannii
Method: as §5

## CNC(=O)c1c(O)c(=O)cc(C)n1C1CC1 [Apo6619, 1-cyclopropyl-3-hydroxy-6-methyl-4-oxo-1,4-dihydro-pyridine-2-carboxylic acid methylamide]
E. coli [1]; Escherichia coli, 35718, read-out: MIC of Iron Chelators
  MIC: 250 µg/mL
E. coli [1]; Escherichia coli, ATCC43888, ATCC 43888 (0157:H7), read-out: MIC of Iron Chelators
  MIC: 250 µg/mL
P. aeruginosa [2]; ATCC27853, ATCC 27853, read-out: MIC of Iron Chelators
  MIC: > 500 µg/mL
P. aeruginosa [2]; PAO1, read-out: MIC of Iron Chelators
  MIC: 500 µg/mL
Acinetobacter baumannii [3]; ATCC17978, ATCC 17978, read-out: MIC of Iron Chelators
  MIC: 64 µg/mL
Acinetobacter baumannii [3]; ATCC19606, ATCC 19606, read-out: MIC of Iron Chelators
  MIC: 125 µg/mL
K. pneumonia [4]; ATCC700603, ATCC 700603, read-out: MIC of Iron Chelators
  MIC: 500 µg/mL
K. pneumonia [4]; BAA2146, BAA-2146, read-out: MIC of Iron Chelators
  MIC: 500 µg/mL
[5]
  time-kill effect: bactericidal (considered bactericidal at the lowest concentration that reduced the size of the original inoculum by >3 log 10 CFU/ml (99.9%))
E. coli [6]; ATCC35218, ATCC 35218
  MIC: 250 µg/mL
E. coli [6]; ATCC43888, ATCC 43888 (0157:H7)
  MIC: 250 µg/mL
P. aeruginosa [7]; ATCC27853, ATCC 27853
  MIC: > 500 µg/mL
P. aeruginosa [7]; PAO1
  MIC: > 500 µg/mL
S. aureus; ATCC25923, ATCC 25923
  MIC: > 500 µg/mL
S. aureus; ATCC 43300 (MRSA)
  MIC: > 500 µg/mL
Acinetobacter baumannii [8]; ATCC17978, ATCC 17978, Table 1, read-out: MIC of Iron Chelators
  MIC: 250 µg/mL
Acinetobacter baumannii [8]; ATCC19606, ATCC 19606, Table 1, read-out: MIC of Iron Chelators
  MIC: 250 µg/mL
K. pneumonia [9]; ATCC700603, ATCC 700603
  MIC: > 500 µg/mL
K. pneumonia [9]; BAA2146, BAA-2146
  MIC: > 500 µg/mL
[10]; AB967, read-out: MIC of Iron Chelators
  MIC: 250 µg/mL
[10]; AB2828, read-out: MIC of Iron Chelators
  MIC: 500 µg/mL
[10]; AB3340, read-out: MIC of Iron Chelators
  MIC: 250 µg/mL
[10]; AB3560, read-out: MIC of Iron Chelators
  MIC: 500 µg/mL
[10]; AB3638, read-out: MIC of Iron Chelators
  MIC: 500 µg/mL
[10]; AB3785, read-out: MIC of Iron Chelators
  MIC: 500 µg/mL
[10]; AB3806, read-out: MIC of Iron Chelators
  MIC: 1000 µg/mL
[10]; AB3917, read-out: MIC of Iron Chelators
  MIC: 500 µg/mL
[10]; AB3927, read-out: MIC of Iron Chelators
  MIC: 250 µg/mL
[10]; AB4025, read-out: MIC of Iron Chelators
  MIC: 500 µg/mL
[10]; AB4026, read-out: MIC of Iron Chelators
  MIC: 500 µg/mL
[10]; AB4027, read-out: MIC of Iron Chelators
  MIC: 500 µg/mL
[10]; AB4052, read-out: MIC of Iron Chelators
  MIC: 500 µg/mL
[10]; AB4269, read-out: MIC of Iron Chelators
  MIC: 250 µg/mL
[10]; AB4448, read-out: MIC of Iron Chelators
  MIC: 500 µg/mL
[10]; AB4456, read-out: MIC of Iron Chelators
  MIC: 500 µg/mL
[10]; AB4490, read-out: MIC of Iron Chelators
  MIC: 500 µg/mL
[10]; AB4498, read-out: MIC of Iron Chelators
  MIC: 500 µg/mL
[10]; AB4795, read-out: MIC of Iron Chelators
  MIC: 500 µg/mL
[10]; AB4857, read-out: MIC of Iron Chelators
  MIC: 500 µg/mL
[10]; AB4878, read-out: MIC of Iron Chelators
  MIC: 500 µg/mL
[10]; AB4932, read-out: MIC of Iron Chelators
  MIC: 500 µg/mL
[10]; AB4957, read-out: MIC of Iron Chelators
  MIC: 250 µg/mL
[10]; AB4991, read-out: MIC of Iron Chelators
  MIC: 500 µg/mL
[10]; AB5001, read-out: MIC of Iron Chelators
  MIC: 250 µg/mL
[10]; AB5075, read-out: MIC of Iron Chelators
  MIC: 250 µg/mL
[10]; AB5197, read-out: MIC of Iron Chelators
  MIC: 500 µg/mL
[10]; AB5256, read-out: MIC of Iron Chelators
  MIC: 250 µg/mL
[10]; AB5674, read-out: MIC of Iron Chelators
  MIC: 250 µg/mL
[10]; AB5711, read-out: MIC of Iron Chelators
  MIC: 250 µg/mL
